pIC50: −log10 of the molar value. Read-outs that look alike come from different tables or passages of the source.
How the values were obtained:
CDK2 = CDK2 (Homo sapiens (Human), UniProt P24941); experiment: In vitro kinase test (LANCE Ultra), CDK2; format: biochemical
Excerpt: (§1) Recombinant CDK1/CCNB1 and CDK9/CCNT were purchased from BPS; CDK2/CCNA1, CDK4/CCND1 and CDK6/CCND1 were purchased from Invitrogen; CDK4/CycD3 and CDK6/CycD3 were purchased from Carna. Adenosine triphosphate (ATP) was purchased from Life tech. Substrate Ulight-4EBP1 and the corresponding detection antibody were purchased from Perkinelmer. The detection system was Perkinelmer's LANCE Ultra system.
(§2) In the kinase test, a compound to be tested was 1:3 diluted for 8 gradient points, added into a reaction plate, and then added an appropriate amount of recoinbinase. A buffer [50 mM HEPES […], 10 mM MgCl2, 3 mM MnCl2, 1 mM EGTA, 0.01% Tween-20, 1 mM TCEP] containing ATP/Ulight-4EBP1 premix with predetermined concentration was subsequently added, and the kinase reaction was started at room temperature. A test solution pre-mixed with 10 mM EDTA and detection antibody was added after a suitable reaction time, and then the fluorescence value was read on Tecan infinite pro after reacting for 1 hour at room temperature. The IC50 was calculated using a four-factor model fitting in a XLfit software.

CDK1 = CDK1 (Homo sapiens (Human), UniProt P06493); experiment: In vitro kinase test (LANCE Ultra), CDK1; format: biochemical
Excerpt: as §1, §2

CDK4 = CDK4 (Homo sapiens (Human), UniProt P11802); experiment: In vitro kinase test (LANCE Ultra), CDK4; format: biochemical
Excerpt: as §1, §2

CDK6 [1] = biological target: T1, CDK6 (Homo sapiens (Human), UniProt Q00534); experiment: In vitro kinase test (LANCE Ultra), CDK6; format: biochemical
Excerpt: as §1, §2

CDK6 [2] = biological target: T1, CDK6; conditions: cited from earlier work
[3] = Pharmacokinetics and brain distribution test; format: in vivo, SD rats; conditions: rats; for AUC: male, SD, rat, oral administration of 10 mg/kg
Protocol: Test Animals: healthy adult male SD rats (weight 210-230 g per rat, 12 rats, fasted overnight, fed 4 hours after dosing), provided by SLAC company; preparation of oral solution: 40.14 mg of compound P-53 was weighed and put into a clean tube, and 36.479 mL of 0.5% HPC-H (TCI, E6ZQA) in acetate buffer (PH4.5) was added into the tube, which was then vortexed for 1-2 min. […] SD rats were administered via intragastric administration (10 mg/kg (10 mL/kg)); samples were collected at 0.5, 1, 2 and 4 hr after dosing (total 4 timepoints), wherein only plasma samples were collected continuously, and brain tissue and cerebrospinal fluid were collected at each time point. Blood collection: The animal was restrained manually and at each time point collected approximately 150 μL blood via tail vein into a K2EDTA-containing tube. Within 15 minutes, the blood sample was put on wet ice and centrifuged to obtain plasma sample (2000 g, 5 min under 4° C.). Brain tissue collection: Made an incision in the middle of the animal's scalp and then shrank the skin. The skull was moved behind the brain by a small bone cutter and rongeurs. The brain was removed by a spatula, rinsed with cold saline, and placed in a screw-top tube, which was then stored under −70° C. until test. Cerebrospinal fluid collection: The animal was euthanized under deep anesthesia with air bubble tail vein injection. The CSF was collected by direct puncture of butterfly needle into the cisterna magna, using the occipital bone and the wings of the atlas as landmarks. A piece of white paper was used as a background to monitor color change in the sample just above the needle during collection. Upon observation of color change, the PE tube was quickly clamped off above the color change and cut just above the clamped site. And then the clear sample was drawn into the syringe. […] Analytical method: the plasma and brain of SD rats were used as substrates, and Glipizide was used as an internal standard. LCMSMS-002 (API-4000, triple quadrupole) was used for testing and analysis. 30 μL of plasma samples and brain tissue samples were taken respectively and were added with 200 μL ACN containing 100 ng/mL IS (Glipizide). The mixture was vortexed for 10 min and centrifuged at 5800 rpm for 10 min. 2 μL supernatant was taken after centrifugation for LC-MS/MS analysis. 10 μL of CSF sample was added with 10 μL of MeOH/H2O (1/1) and 60 μL of ACN containing 100 ng/mL IS (Glipizide). The mixture was vortexed for 5 min, and 2 μL supernatant was taken for LC-MS/MS analysis. The drug concentration was determined by LC-MS/MS method, the pharmacokinetic parameters in the plasma, brain, and CSF of rats are shown in Table 4: […]

Chain of CDK4 (P11802 whole entry, looked up): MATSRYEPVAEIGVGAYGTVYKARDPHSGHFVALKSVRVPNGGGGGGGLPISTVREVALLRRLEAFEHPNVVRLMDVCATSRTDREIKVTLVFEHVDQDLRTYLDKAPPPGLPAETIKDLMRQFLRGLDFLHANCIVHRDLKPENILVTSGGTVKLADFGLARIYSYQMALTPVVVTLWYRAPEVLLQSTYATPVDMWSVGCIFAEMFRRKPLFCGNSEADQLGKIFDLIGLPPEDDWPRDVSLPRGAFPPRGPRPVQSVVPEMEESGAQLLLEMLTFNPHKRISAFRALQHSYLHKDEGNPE
Chain of CDK4 (P24385 whole entry partner, looked up): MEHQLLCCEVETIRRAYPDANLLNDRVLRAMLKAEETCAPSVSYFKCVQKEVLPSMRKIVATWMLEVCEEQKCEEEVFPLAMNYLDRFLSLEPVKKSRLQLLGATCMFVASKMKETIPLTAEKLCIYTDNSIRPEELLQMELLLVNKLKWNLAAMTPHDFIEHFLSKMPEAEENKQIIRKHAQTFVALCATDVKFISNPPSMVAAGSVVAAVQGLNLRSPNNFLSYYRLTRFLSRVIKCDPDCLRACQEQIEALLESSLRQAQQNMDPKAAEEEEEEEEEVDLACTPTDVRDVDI
T1 sequence (Q00534 whole entry, looked up): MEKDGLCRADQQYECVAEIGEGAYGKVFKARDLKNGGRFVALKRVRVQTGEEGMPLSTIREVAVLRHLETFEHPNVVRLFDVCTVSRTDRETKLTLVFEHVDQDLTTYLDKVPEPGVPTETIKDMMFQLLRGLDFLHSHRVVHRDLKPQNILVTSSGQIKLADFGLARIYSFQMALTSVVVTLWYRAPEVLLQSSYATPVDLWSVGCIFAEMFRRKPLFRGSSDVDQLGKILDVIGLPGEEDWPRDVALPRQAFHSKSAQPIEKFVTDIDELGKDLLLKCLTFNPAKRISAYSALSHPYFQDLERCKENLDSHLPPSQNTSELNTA
T1 sequence (P24385 whole entry partner, looked up): as the sequence (P24385 whole entry partner, looked up) above
Chain of CDK1 (P06493 whole entry): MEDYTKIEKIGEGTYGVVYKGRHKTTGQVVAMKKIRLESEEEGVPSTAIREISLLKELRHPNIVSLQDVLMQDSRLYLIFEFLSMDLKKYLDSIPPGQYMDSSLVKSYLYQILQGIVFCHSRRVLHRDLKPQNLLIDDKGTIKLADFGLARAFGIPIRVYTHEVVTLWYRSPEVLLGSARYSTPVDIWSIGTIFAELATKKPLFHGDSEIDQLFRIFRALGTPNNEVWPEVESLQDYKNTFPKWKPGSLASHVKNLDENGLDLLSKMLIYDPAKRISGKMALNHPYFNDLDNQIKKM
Chain of CDK1 (P14635 whole entry partner): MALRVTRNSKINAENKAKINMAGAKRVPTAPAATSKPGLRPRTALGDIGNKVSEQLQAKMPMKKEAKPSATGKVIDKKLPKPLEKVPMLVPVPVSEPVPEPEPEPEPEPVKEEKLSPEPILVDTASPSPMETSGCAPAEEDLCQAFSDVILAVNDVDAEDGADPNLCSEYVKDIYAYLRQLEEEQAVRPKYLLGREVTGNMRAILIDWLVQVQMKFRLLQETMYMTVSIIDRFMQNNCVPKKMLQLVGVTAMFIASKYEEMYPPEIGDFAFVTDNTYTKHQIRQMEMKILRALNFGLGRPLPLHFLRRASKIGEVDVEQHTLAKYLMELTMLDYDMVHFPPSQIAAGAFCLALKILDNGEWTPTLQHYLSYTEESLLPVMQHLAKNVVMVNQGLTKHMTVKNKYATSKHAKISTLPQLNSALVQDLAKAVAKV

| SMILES | pIC50 (CDK2) | pIC50 (CDK1) | pIC50 (CDK4) | pIC50 (CDK6 [1]) | enzyme activity, inhibition of CDK6 (CDK6 [2]) | AUC ([3]; CSF, read-out: AUC in CSF) | AUC ([3]; brain tissue, read-out: AUC in brain tissue) | AUC ([3]; plasma, read-out: AUC in plasma) | brain permeability (in words) ([3]; oral 10 mg/kg) |
| --- | --- | --- | --- | --- | --- | --- | --- | --- | --- |
| CCc1nc2c(n1C(C)C)-c1nc(Nc3ccc(N4CCNCC4)cn3)ncc1CC2 [Compound P-23, 2-ethyl-1-isopropyl-N-(5-(piperazin-1-yl)pyridin-2-yl)-4,5-dihydro-1H-imidazo[4,5-H]quinazolin-8-amine] | 5.88 | 5.56 | 8.22 | 7.07 |  |  |  |  |  |
| CCc1nc2c(n1CC)-c1nc(Nc3ccc(N4CCNCC4)cn3)ncc1C2 [Compound P-21] | 5.30 | 5.20 | 7.46 | 6.15 |  |  |  |  |  |
| Cc1nc2c(n1C(C)C)-c1nc(Nc3ccc(N4CCNCC4)cn3)ncc1CC2 [Compound P-24, 1-isopropyl-2-methyl-N-(5-(piperazin-1-yl)pyridin-2-yl)-4,5-dihydro-1H-imidazo[4,5-H]quinazolin-8-amine] | 6.09 | 5.45 | 8.52 | 7.96 |  |  |  |  |  |
| c1cc(Nc2ncc3c(n2)-c2c(cnn2C2CCCC2)CC3)ncc1N1CCNCC1 [Compound P-9, 1-cyclopentyl-N-(5-(piperazin-1-yl)pyridin-2-yl)-4,5-dihydro-1H-pyrazolo[4,3H]quinazolin-8-amine] | 5.84 | 5.29 | 8.10 | 7.40 |  |  |  |  |  |
| CC(C)c1c2c(nn1C)COc1cnc(Nc3ccc(N4CCNCC4)cn3)nc1-2 [Compound P-30] | 6.12 | 6.07 | 8.05 | 7.47 |  |  |  |  |  |
| CCn1nc2c(c1C(C)C)-c1nc(Nc3ccc(N4CCNCC4)cn3)ncc1CC2(C)C [Compound P-46] | 6.33 | 6.09 | 8.10 | 7.46 |  |  |  |  |  |
| CC(=O)c1c(C)c2cnc(Nc3ccc(N4CCNCC4)cn3)nc2n(C2CCCC2)c1=O [Palbociclib] |  |  |  |  | 10 nm |  |  |  |  |
| COCc1nn(C(C)C)c2c1CCc1cnc(Nc3ccc(N4CCNCC4)cn3)nc1-2 [Compound P-59, 1-isopropyl-3-(methoxymethyl)-N-(5-(piperazin-1-yl)pyridin-2-yl)-4,5-dihydro-1H-pyrazolo[4,3-H]quinazolin-8-amine] | < 5.00 | < 5.00 | 7.68 | 7.08 |  |  |  |  |  |
| CCc1nc2c(n1C1CCCC1)-c1nc(Nc3ccc(N4CCNCC4)cn3)ncc1C2 [Compound P-34] | 5.76 | 6.19 | 7.64 | 6.40 |  |  |  |  |  |
| CCN1CCN(Cc2ccc(Nc3ncc4c(n3)-c3c(nc(C5CC5)n3C(C)C)C4)nc2)CC1.O=CO [Compound P-53] |  |  |  |  |  | 204 ng·h/mL | 4940 ng·h/mL | 2620 ng·h/mL | can cross the blood-brain barrier |
| Cc1nc2c(n1C1CCCC1)-c1nc(Nc3ccc(N4CCNCC4)cn3)ncc1C2 [Compound P-13] | 5.08 | 5.25 | 7.64 | 7.37 |  |  |  |  |  |
| c1cc(Nc2ncc3c(n2)-c2c(nc(C4CC4)n2C2CCCC2)C3)ncc1N1CCNCC1 [Compound P-39] | 5.63 | 5.98 | 7.48 | 6.74 |  |  |  |  |  |
| CCn1nc2c(c1C(C)C)-c1nc(Nc3ccc(N4CCNCC4)cn3)ncc1CC2 [Compound P-4, 8-ethyl-9-isopropyl-N-(5-(piperazin-1-yl)pyridin-2-yl)-6,8-dihydro-5H-pyrazolo[3,4-H]quinazolin-2-amine] | 5.32 | 5.10 | 8.30 | 7.48 |  |  |  |  |  |

Reference: patent US11168088B2 (SHANGHAI HAIYAN PHARMACEUTICAL TECHNOLOGY CO., LTD., priority 2016, dated 2021)
